Source: patent publication US8981111B2 (priority 2008, dated 2015)

Assay: log P (HPLC/MS data of the preparation examples)
Conditions: HCOOH

Compound | log P(HCOOH)
2-(6-{[({(3-bromo-4-methoxyphenyl)[3-chloro-5-(trifluoromethyl)pyridin-2-yl]methylene}amino)oxy]methyl}pyridin-2-yl)-1H-isoindole-1,3(2H)-dione [Example 430] | 4.78
2-[({[(1-methyl-1H-imidazol-5-yl)(phenyl)methylene]amino}oxy)methyl]pyrimidin-4-amine [Example 105] | < 0.23
2-methyl-N-{4-[({[(1-methyl-1H-imidazol-5-yl)(phenyl)methylene]amino}-oxy)methyl]-1,3-thiazol-2-yl}propanamide [Example 143] | 1.63
2-{6-[({[(1-methyl-1H-imidazol-5-yl)(3-thienyl)methylene]amino}oxy)-methyl]pyridin-2-yl}-1H-isoindole-1,3(2H)-dione [Example 491] | 1.73
6-[({[(1-methyl-1H-imidazol-5-yl)(phenyl)methylene]amino}oxy)methyl]pyridin-2-amine [Example 108] | 0.29
6-{[({(3-bromo-4-methoxyphenyl)[3-chloro-5-(trifluoromethyl)pyridin-2-yl]methylene}amino)oxy]methyl}pyridin-2-amine [Example 432] | 2.54

Same assay, conditions: HCOOH (formic acid)

Compound | chromatographic logP
Cc1ncc(C(=NO)c2ccccc2)n1C [1-(1,2-dimethyl-1H-imidazol-5-yl)-N-hydroxy-1-phenylmethanimine] | 0.43
ON=C(c1ccsc1)c1snc(Cl)c1Cl [1-(3,4-dichloro-1,2-thiazol-5-yl)-N-hydroxy-1-(3-thienyl)methanimine] | 3.04
Cc1cnc(C)c(C(=NO)c2ccccc2)n1 [1-(3,6-dimethylpyrazin-2-yl)-N-hydroxy-1-phenylmethanimine] | 1.7
CON(C)C(=O)c1snc(Cl)c1Cl [3,4-dichloro-N-methoxy-N-methyl-1,2-thiazole-5-carboxamide] | 1.66
Cc1ncc(C(=O)c2ccccc2)n1C [(1,2-dimethyl-1H-imidazol-5-yl)(phenyl)methanone] | 0.56
Cn1ccnc1C(=O)c1ccccc1 [(1-methyl-1H-imidazol-2-yl)(phenyl)methanone] | 1.38
Cn1cncc1C(=O)c1cccs1 [(1-methyl-1H-imidazol-5-yl)(2-thienyl)methanone] | 0.52

Same assay, conditions: HPLC (LC-MS) method [b]: pH 2.7, 0.1% formic acid in water and acetonitrile, linear gradient 10% to 95% acetonitrile; EEC directive 79/831 Annex V.A8

Compound | log p
2-(6-{[({(3-bromo-4-methoxyphenyl)[3-chloro-5-(trifluoromethyl)pyridin-2-yl]methylene}amino)oxy]methyl}pyridin-2-yl)-1H-isoindole-1,3(2H)-dione [Example 430] | 1.67^[b]
2-{6-[({[(1-methyl-1H-imidazol-5-yl)(3-thienyl)methylene]amino}oxy)-methyl]pyridin-2-yl}-1H-isoindole-1,3(2H)-dione [Example 491] | 3.67^[b]
6-{[({(3-bromo-4-methoxyphenyl)[3-chloro-5-(trifluoromethyl)pyridin-2-yl]methylene}amino)oxy]methyl}pyridin-2-amine [Example 432] | 1.99^[b]
Cn1cncc1C(=NOCc1cccc(N)n1)c1ccsc1 (single isomer, unassigned) [Example 418] | 0.39^[b]
Cn1cncc1C(=NOCc1cccc(N)n1)c1ccsc1 (single isomer, unassigned) [Example 419] | 0.32^[b]
CCCCCC(=O)Nc1cccc(CON=C(c2ccsc2)c2cncn2C)n1 (single isomer, unassigned) [Example 426] | 1.99^[b]
CCCCCC(=O)Nc1cccc(CON=C(c2ccsc2)c2cncn2C)n1 (single isomer, unassigned) [Example 427] | 1.99^[b]
CCCCCOC(=O)Nc1nc(CON=C(c2cccs2)c2cncn2C)cs1 (single isomer, unassigned) [Example 459] | 2.16^[b]
CCCCCOC(=O)Nc1nc(CON=C(c2cccs2)c2cncn2C)cs1 (single isomer, unassigned) [Example 460] | 2.25^[b]
CCCCCOC(=O)Nc1nc(CON=C(c2ccsc2)c2cncn2C)cs1 (single isomer, unassigned) [Example 461] | 2.22^[b]
CCCCCOC(=O)Nc1nc(CON=C(c2ccsc2)c2cncn2C)cs1 (single isomer, unassigned) [Example 462] | 2.23^[b]

Same assay, conditions: HPLC/MS with HCOOH (formic acid)

Compound | chromatographic logP
COc1ccc(C(=NO)c2ncc(C(F)(F)F)cc2Cl)cc1Br [1-(3-bromo-4-methoxyphenyl)-1-[3-chloro-5-(trifluoromethyl)pyridin-2-yl]-N-hydroxymethanimine] | 3.37

Same assay, conditions: LC-MS, method [b]: pH 2.7 with 0.1% formic acid in water and acetonitrile, linear gradient 10% to 95% acetonitrile

Compound | log p
2-[({[(1-methyl-1H-imidazol-2-yl)(phenyl)methylene]amino}oxy)methyl]pyrimidin-4-amine [Example 7] | 1.26^[b]
2-[({[(1-methyl-1H-imidazol-5-yl)(phenyl)methylene]amino}oxy)methyl]pyrimidin-4-amine [Example 105] | 5.05^[b]
6-[({[(1-methyl-1H-imidazol-5-yl)(phenyl)methylene]amino}oxy)methyl]pyridin-2-amine [Example 108] | 4.75^[b]
Cn1cncc1C(=NOCc1cccc(N)n1)c1ccccc1 (single isomer, unassigned) [Example 97] | 0.25^[b]
Cn1cncc1C(=NOCc1cccc(N)n1)c1ccccc1 (single isomer, unassigned) [Example 98] | 0.29^[b]
Cn1cncc1C(=NOCc1cccc(NC(=O)C(C)(C)C)n1)c1ccccc1 (single isomer, unassigned) [Example 123] | 2.1^[b]
Cn1cncc1C(=NOCc1cccc(NC(=O)C(C)(C)C)n1)c1ccccc1 (single isomer, unassigned) [Example 126] | 1.85^[b]
CCCCCOC(=O)Nc1cccc(CON=C(c2ccccc2)c2ocnc2C)n1 (single isomer, unassigned) [Example 318] | 4.34^[b]
CCCCCOC(=O)Nc1cccc(CON=C(c2ccccc2)c2ocnc2C)n1 (single isomer, unassigned) [Example 319] | 4.54^[b]
CCCCCOC(=O)Nc1nc(CON=C(c2ccccc2)c2ocnc2C)cs1 (single isomer, unassigned) [Example 322] | 3.87^[b]
CCCCCC(=O)Nc1cccc(CON=C(c2ccccc2)c2ocnc2C)n1 (single isomer, unassigned) [Example 323] | 3.67^[b]
Cc1ncoc1C(=NOCc1csc(N)n1)c1ccccc1 (single isomer, unassigned) [Example 350] | 1.3^[b]

Same assay, conditions: Neutral

Compound | log P(Neutral)
2-[({[(1-methyl-1H-imidazol-2-yl)(phenyl)methylene]amino}oxy)methyl]pyrimidin-4-amine [Example 7] | 1.42

Same assay, conditions: method [b]: LC-MS at pH 2.7, 0.1% formic acid in water / acetonitrile, linear gradient 10% to 95% acetonitrile

Compound | log p
2-methyl-N-{4-[({[(1-methyl-1H-imidazol-5-yl)(phenyl)methylene]amino}-oxy)methyl]-1,3-thiazol-2-yl}propanamide [Example 143] | 1.11^[b]
Cc1nc(C(=NOCc2cccc(N3C(=O)c4ccccc4C3=O)n2)c2ccccc2)cs1 (single isomer, unassigned) [Example 168] | 3.27^[b]
Cc1nc(C(=NOCc2cccc(N)n2)c2ccccc2)cs1 (single isomer, unassigned) [Example 169] | 1.7^[b]
Cc1nc(C(=NOCc2cccc(N3C(=O)c4ccccc4C3=O)n2)c2ccccc2)cs1 (single isomer, unassigned) [Example 170] | 3.55^[b]
Cc1nc(C(=NOCc2cccc(NC(=O)CC(C)C)n2)c2ccccc2)cs1 (single isomer, unassigned) [Example 171] | 3.46^[b]
Cc1nc(C(=NOCc2cccc(NC(=O)Cc3ccccc3)n2)c2ccccc2)cs1 (single isomer, unassigned) [Example 173] | 3.61^[b]
Cc1nc(C(=NOCc2cccc(N)n2)c2ccccc2)cs1 (single isomer, unassigned) [Example 174] | 1.47^[b]
CCCCCC(=O)Nc1cccc(CON=C(c2ccccc2)c2csc(C)n2)n1 (single isomer, unassigned) [Example 188] | 3.89^[b]
CCCCCC(=O)Nc1cccc(CON=C(c2ccccc2)c2csc(C)n2)n1 (single isomer, unassigned) [Example 189] | 4.26^[b]
Cc1nc(C(=NOCc2cccc(NC(=O)CC(C)C)n2)c2ccccc2)cs1 (single isomer, unassigned) [Example 190] | 3.75^[b]
Cc1nc(C(=NOCc2cccc(NC(=O)Cc3ccccc3)n2)c2ccccc2)cs1 (single isomer, unassigned) [Example 191] | 3.87^[b]
